Here are results for eleven compounds from ChEMBL document CHEMBL1201862, “PubChem BioAssay data set” (2004).

The structures appear in SMILES notation.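 Cells were grown in 96-well plates and exposed to each compound for 48 hours at five concentrations; endpoints were interpolated linearly between bracketing concentrations, or set to the highest concentration if not reached. GI50 is the concentration that inhibits growth by half.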 Active and inactive are the calls of the source. Rule as the data show it: active = GI50 up to about 1.1 µM and inactive = higher. Bounds are passed on as bounds.

Test systems include A549; SF-539; UO-31; M14; OVCAR-5; K562; SK-MEL-28; HOP-62; SW-620; LOX IMVI; HCT-15; IGROV-1; HL-60; HT-29; KM12; HCT-116; COLO 205; SK-MEL-5; SK-MEL-2.
Common to all, as to assay: inhibition of tumour cell growth, NCI panel, 48 h

With `Nc1ccc2c(c1)C(=O)N(O)C2=O`, the GI50 with A549, with SF-539, with UO-31, with M14, in the assay on OVCAR-5 and with K562 was > 100 µM (inactive) throughout. The GI50 in the assay on SK-MEL-28 was > 100 µM (inactive); with HOP-62, > 100 µM (inactive); with SW-620, > 100 µM (inactive); in the assay on LOX IMVI, > 100 µM (inactive); in the assay with HCT-15, over 100 µM; in the assay with IGROV-1, > 100 µM (inactive). Further, the GI50 with HL-60, in the assay on HT-29, with KM12 and with HCT-116 was > 100 µM (inactive) in each case.
`Cc1ccc2c(c1)C(=O)N(N(C)C)CC(=O)N2`: the GI50 with A549, in the assay on SF-539, in the assay on UO-31, in the assay on COLO 205, in the assay with M14 and in the assay on SK-MEL-5 was > 100 µM (inactive) each time. In addition, the GI50 in the assay with OVCAR-5, with SK-MEL-2, with K562, with SK-MEL-28, with HOP-62 and with SW-620 was > 100 µM (inactive) throughout. The GI50 in the assay on LOX IMVI is > 100 µM (inactive); in the assay on HCT-15 it was over 100 µM; with IGROV-1, > 100 µM (inactive); with HL-60, > 100 µM (inactive); with HT-29, > 100 µM (inactive); in the assay on KM12, > 100 µM (inactive). Further, in the assay with HCT-116, the GI50 was > 100 µM (inactive).
As to `CN(C)/C(=N\C#N)NCc1ccccc1`, the GI50 in the assay on A549, in the assay with SF-539, in the assay on UO-31, in the assay on COLO 205, with M14 and in the assay with SK-MEL-5 was > 100 µM (inactive) each time. In addition, the GI50 in the assay with SK-MEL-2 is > 100 µM (inactive); in the assay on SK-MEL-28 it was > 100 µM (inactive); with HOP-62, > 100 µM (inactive); with SW-620, > 100 µM (inactive); with LOX IMVI, > 100 µM (inactive); in the assay with HCT-15, over 100 µM. Further, the GI50 in the assay on IGROV-1, in the assay on HT-29, with KM12 and in the assay with HCT-116 was > 100 µM (inactive) in each case.
On to `O=c1ccc2nc3cc(Br)ccc3sc-2c1`, for which the GI50 was > 100 µM (inactive) with A549; > 100 µM (inactive) in the assay with SF-539; > 100 µM (inactive) with UO-31; > 100 µM (inactive) in the assay on COLO 205; > 100 µM (inactive) in the assay with M14; 62.8 µM (inactive) with SK-MEL-5. For the same compound, the GI50 with OVCAR-5 was > 100 µM (inactive); in the assay with SK-MEL-2, > 100 µM (inactive); in the assay with K562, 22.4 µM (inactive); with SK-MEL-28, > 100 µM (inactive); in the assay with HOP-62 it was > 100 µM (inactive); with SW-620, > 100 µM (inactive). The GI50 with HCT-15 was 74.1 µM; in the assay with IGROV-1, > 100 µM (inactive); in the assay on HL-60, 13.5 µM (inactive); with HT-29 it was > 100 µM (inactive); with KM12 it was > 100 µM (inactive); in the assay with HCT-116 it was > 100 µM (inactive).
Take `O=c1[nH]c(=O)n(C2CC(O)C(O)C(CO)O2)cc1F` (configuration not stated): the GI50 with A549, in the assay on SF-539, in the assay with UO-31, in the assay on COLO 205, in the assay on M14 and in the assay on OVCAR-5 was > 100 µM (inactive) in each case. In addition, the GI50 in the assay on SK-MEL-2, in the assay on K562, in the assay on SK-MEL-28, in the assay on HOP-62, in the assay on SW-620 and in the assay on LOX IMVI was > 100 µM (inactive) in each case. The GI50 in the assay with HCT-15 is over 100 µM; with IGROV-1, > 100 µM (inactive); in the assay with HL-60, > 100 µM (inactive); with HT-29 it was > 100 µM (inactive); with KM12, > 100 µM (inactive); with HCT-116 it was > 100 µM (inactive).
In the case of `c1ccc2c(c1)SP1Sc3ccccc3P21` (configuration not stated), the GI50 in the assay with A549 was > 100 µM (inactive); in the assay with SF-539, > 100 µM (inactive); in the assay on UO-31, 68.1 µM (inactive); in the assay on COLO 205, > 100 µM (inactive); with SK-MEL-5 it was > 100 µM (inactive); in the assay with OVCAR-5, > 100 µM (inactive). Besides, the GI50 in the assay with SK-MEL-2 was > 80.7 µM (inactive); in the assay with K562, > 87.3 µM (inactive); in the assay with SK-MEL-28, > 90.4 µM (inactive); with HOP-62, > 100 µM (inactive); in the assay on SW-620, > 100 µM (inactive); in the assay with LOX IMVI it was > 83.6 µM (inactive). For the same compound, the GI50 in the assay with HCT-15 is over 100 µM; in the assay with IGROV-1 it was > 100 µM (inactive); in the assay with HL-60, > 72.8 µM (inactive); with HT-29 it was 74.6 µM (inactive); in the assay with KM12 it was > 100 µM (inactive); with HCT-116 it was > 80 µM (inactive).
Consider `Cc1cccc(C(C)C)c1NC(=O)CC1Sc2ccccc2NC1=O` (configuration not stated), for which the GI50 is 87.3 µM (inactive) in the assay on A549; > 100 µM (inactive) in the assay with SF-539; 74.5 µM (inactive) in the assay on UO-31; > 100 µM (inactive) in the assay on COLO 205; 50.1 µM (inactive) in the assay on M14; 35.4 µM (inactive) in the assay with SK-MEL-5. In addition, the GI50 is > 100 µM (inactive) with OVCAR-5; 42.5 µM (inactive) with SK-MEL-2; 33.1 µM (inactive) with K562; 83.6 µM (inactive) in the assay with SK-MEL-28; > 100 µM (inactive) in the assay with HOP-62; 76.4 µM (inactive) in the assay with SW-620. The GI50 was 94.4 µM (inactive) in the assay on LOX IMVI; 70.1 µM with HCT-15; > 100 µM (inactive) in the assay on IGROV-1; 46.9 µM (inactive) with HL-60; 48.9 µM (inactive) in the assay with HT-29; > 100 µM (inactive) in the assay on KM12. The GI50 in the assay with HCT-116 is 55.6 µM (inactive).
With `COC1CCC(O)C(CO)O1` (configuration not stated), the GI50 in the assay on A549 is > 100 µM (inactive); in the assay with SF-539 it was 41.2 µM (inactive); in the assay on UO-31 it was > 100 µM (inactive); in the assay on M14 it was 43.2 µM (inactive); in the assay with SK-MEL-5, > 100 µM (inactive); in the assay on OVCAR-5, > 100 µM (inactive). The GI50 in the assay with SK-MEL-2 was > 100 µM (inactive); in the assay on K562, 11.2 µM (inactive); with SK-MEL-28 it was > 100 µM (inactive); with HOP-62, > 100 µM (inactive); in the assay with SW-620, 24.3 µM (inactive); with LOX IMVI, 23.3 µM (inactive). The GI50 is over 100 µM in the assay on HCT-15; 22.7 µM (inactive) in the assay on IGROV-1; 31.7 µM (inactive) with HL-60; > 100 µM (inactive) in the assay with HT-29; > 100 µM (inactive) with KM12; > 100 µM (inactive) with HCT-116.
With `CN(C)C(=O)OCOC(=O)N(C)C`, the GI50 in the assay on A549, in the assay with SF-539, with UO-31, in the assay on COLO 205, in the assay with SK-MEL-5 and with OVCAR-5 was > 100 µM (inactive) each time. For the same compound, the GI50 with SK-MEL-2, in the assay with K562, in the assay on SK-MEL-28, in the assay with HOP-62, in the assay on SW-620 and in the assay on LOX IMVI was > 100 µM (inactive) each time. In addition, the GI50 is over 100 µM in the assay on HCT-15; > 100 µM (inactive) in the assay on IGROV-1; > 31.6 µM (inactive) with HL-60; > 100 µM (inactive) with HT-29; > 100 µM (inactive) in the assay on KM12; > 100 µM (inactive) in the assay on HCT-116.
As for `O=C(CCC1C(=O)NC(=S)NC1=O)c1ccc2ccccc2c1`, the GI50 in the assay on A549, in the assay on SF-539, in the assay on UO-31, in the assay on COLO 205, in the assay on M14 and in the assay on SK-MEL-5 was > 100 µM (inactive) in each case. In addition, the GI50 in the assay on OVCAR-5, in the assay on SK-MEL-2, with K562, in the assay on SK-MEL-28, in the assay with HOP-62 and in the assay with SW-620 was > 100 µM (inactive) in each case. Besides, the GI50 in the assay with LOX IMVI was > 100 µM (inactive); with HCT-15, over 100 µM; in the assay with IGROV-1, > 100 µM (inactive); in the assay with HL-60, > 100 µM (inactive); in the assay with HT-29, > 100 µM (inactive); in the assay with KM12, > 100 µM (inactive). In the assay on HCT-116, the GI50 is > 100 µM (inactive).
Take `COc1cc(C2c3cc4c(cc3[C@@H](Nc3ccc5c(c3)OCO5)C3COC(=O)[C@H]23)OCO4)cc(OC)c1O` (some centres not stated): the GI50 is 0.0294 µM (active) in the assay on A549; 0.324 µM (active) in the assay on SF-539; 0.382 µM (active) in the assay on UO-31; 1.68 µM (inactive) with COLO 205; 0.63 µM (active) in the assay on SK-MEL-5; 2.74 µM (inactive) in the assay on OVCAR-5. The GI50 with SK-MEL-2 is 2.4 µM (inactive); in the assay with K562 it was 0.721 µM (active); in the assay with SK-MEL-28 it was 3.43 µM (inactive); with HOP-62, 0.177 µM (active); in the assay on SW-620, 1.2 µM (inactive); with LOX IMVI, 0.456 µM (active). In addition, the GI50 in the assay on HCT-15 is 0.336 µM; in the assay on IGROV-1 it was 2.49 µM (inactive); in the assay on HL-60 it was 0.043 µM (active); with HT-29, 1.24 µM (inactive); in the assay with KM12, 1.79 µM (inactive); in the assay with HCT-116, 0.74 µM (active).
